We go through 27 compounds from patent publication US10793580B2, “Substituted pyrazoloazepin-8-ones and their use as phosphodiesterase inhibitors” (LEO Pharma A/S, priority 2016, dated 2020).

Chain of human PDE4D catalytic domain (Q08499 380-740): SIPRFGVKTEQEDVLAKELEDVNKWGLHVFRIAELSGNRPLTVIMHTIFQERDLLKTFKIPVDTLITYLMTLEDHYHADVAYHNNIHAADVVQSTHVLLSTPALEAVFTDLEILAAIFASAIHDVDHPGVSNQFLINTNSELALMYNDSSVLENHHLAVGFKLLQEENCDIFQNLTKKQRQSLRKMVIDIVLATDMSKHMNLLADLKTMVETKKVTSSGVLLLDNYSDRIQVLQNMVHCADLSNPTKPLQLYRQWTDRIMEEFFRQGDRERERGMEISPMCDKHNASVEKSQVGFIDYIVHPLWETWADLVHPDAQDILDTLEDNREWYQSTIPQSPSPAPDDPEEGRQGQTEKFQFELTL

The first assay concerns the target human PDE4D catalytic domain (Homo sapiens (Human), UniProt Q08499). The experiment in a line: PDE4 Assay (TR-FRET, FAM-cAMP cleavage). In kind it is biochemical. Particulars: Table 16, Examples 277-296; read-out: PDE4 IC50 range. The protocol: The human PDE4D catalytic domain (UniProt no. Q08499 [S380-L740]) was incubated with a mixture of non-labelled cAMP (cyclic adenosine monophosphate) and fluorescein amidite (FAM) conjugated cAMP and titrated test or reference Compound. Following brief incubation the enzymatic reaction was stopped by addition of binding buffer containing nanoparticles with immobilized trivalent metal ions capable of binding 1) AMP phospho groups and 2) terbium (Tb) donor fluorophores. Subsequent excitation of the Tb donor triggers time-resolved FRET to adjacent FAM acceptor molecules resulting in light emission. In the presence of a PDE4 inhibitor, AMP generation was reduced resulting in a lower fluorescence signal. The cAMP phosphodiester is not bound by the detection system.
The results were calculated as the molar concentrations resulting in 50% inhibition of the substrate cleavage compared to controls samples, and are expressed as a range of IC50 (nM).
Background: TR-FRET usually uses a lanthanide donor and a delayed reading to cut background.
In general, IC50 refers to the concentration needed to halve the response being measured. Take `CCn1nc(C[C@@H](C)COC(=O)c2coc(C)n2)c2c1C(=O)NCC1(CCOCC1)C2` [Example 281, [(2R)-3-(1-ethyl-8-oxo-spiro[6,7-dihydro-4H-pyrazolo[3,4-c]azepine-5,4′-tetrahydropyran]-3-yl)-2-methyl-propyl] 2-methyloxazole-4-carboxylate]: the IC50 is less than 100 nM.

Still in this assay, the particulars now being: Table 17, Examples 297-316; read-out: PDE4 IC50 range.
Take `CCn1nc(CC(C)(C)COC(=O)C2CCN(C(=O)N(C)C)CC2)c2c1C(=O)NCC1(CCOCC1)C2` [Example 316, [3-(1-ethyl-8-oxo-spiro[6,7-dihydro-4H-pyrazolo[3,4-c]azepine-5,4′-tetrahydro-pyran]-3-yl)-2,2-dimethyl-propyl] 1-(dimethylcarbamoyl)-piperidine-4-carboxylate]: the IC50 is less than 100 nM.

Turning to `CCn1nc(CC(C)(C)COC(=O)c2cc(C)nc(C)c2)c2c1C(=O)NCC1(CCOCC1)C2` [Example 313, [3-(1-ethyl-8-oxo-spiro[6,7-dihydro-4H-pyrazolo[3,4-c]azepine-5,4′-tetrahydropyran]-3-yl)-2,2-dimethyl-propyl] 2,6-dimethylpyridine-4-carboxylate], the IC50 is less than 100 nM. Consider `CCn1nc(CC(C)(C)COC(=O)c2cscn2)c2c1C(=O)NCC1(CCOCC1)C2` [Example 305, [3-(1-ethyl-8-oxo-spiro[6,7-dihydro-4H-pyrazolo[3,4-c]azepine-5,4′-tetrahydro-pyran]-3-yl)-2,2-dimethyl-propyl] thiazole-4-carboxylate], for which the IC50 was less than 100 nM.

The assay is the same for the next values; noted with them: human PDE4D catalytic domain (UniProt Q08499 [S380-L740]); 50% inhibition of substrate cleavage; read-out: PDE4 IC50 range.
`CCn1nc(CCCOC(=O)c2cccc(C(=O)N3CCCCC3)c2)c2c1C(=O)NCC1(CCOCC1)C2` [Example 117, 3-(1-ethyl-8-oxo-spiro[6,7-dihydro-4H-pyrazolo[3,4-c]azepine-5,4′-tetrahydropyran]-3-yl)propyl 3-(piperidine-1-carbonyl)benzoate]: the IC50 is less than 100 nM.

On to `CCn1nc(C[C@@H](C)COC(=O)c2ccc(C(=O)N3CCN(C(C)=O)CC3)cc2)c2c1C(=O)NCC1(CCOCC1)C2` [Example 176, [(2R)-3-(1-ethyl-8-oxo-spiro[6,7-dihydro-4H-pyrazolo[3,4-c]azepine-5,4′-tetrahydropyran]-3-yl)-2-methyl-propyl] 4-(4-acetylpiperazine-1-carbonyl)benzoate], for which the IC50 is less than 100 nM.

For `CCn1nc(CCCOC(=O)c2ccc(C)cc2OC)c2c1C(=O)NCC1(CCOCC1)C2` [Example 34, 3-(1-ethyl-8-oxo-spiro[6,7-dihydro-4H-pyrazolo[3,4-c]azepine-5,4′-tetrahydropyran]-3-yl)propyl 2-methoxy-4-methyl-benzoate], the IC50 was less than 100 nM.

As for `CCc1ccc(C(=O)OCCCc2nn(CC)c3c2CC2(CCOCC2)CNC3=O)cc1` [Example 15, 3-(1-ethyl-8-oxo-spiro[6,7-dihydro-4H-pyrazolo[3,4-c]azepine-5,4′-tetrahydropyran]-3-yl)propyl 4-ethylbenzoate], the IC50 is less than 100 nM.

As to `CCn1nc(CCCCOC(=O)C2CCN(C(C)=O)CC2)c2c1C(=O)NCC1(CCOCC1)C2` [Example 274, 4-(1-ethyl-8-oxo-spiro[6,7-dihydro-4H-pyrazolo[3,4-c]azepine-5,4′-tetrahydropyran]-3-yl)butyl 1-acetylpiperidine-4-carboxylate], the IC50 is less than 100 nM.

On to `CCn1nc(CC(C)(C)COC(=O)c2cccc(C(=O)N(C)C)c2)c2c1C(=O)NCC1(CCOCC1)C2` [Example 229, [3-(1-ethyl-8-oxo-spiro[6,7-dihydro-4H-pyrazolo[3,4-c]azepine-5,4′-tetrahydro-pyran]-3-yl)-2,2-dimethyl-propyl] 3-(dimethyl-carbamoyl)benzoate], for which the IC50 was less than 100 nM. For the compound `CCn1nc(CC(C)(C)COC(=O)c2ccc(S(=O)(=O)N3CCCC3)cc2)c2c1C(=O)NCC1(CCOCC1)C2` [Example 211, [3-(1-ethyl-8-oxo-spiro[6,7-dihydro-4H-pyrazolo[3,4-c]azepine-5,4′-tetrahydropyran]-3-yl)-2,2-dimethyl-propyl] 4-pyrrolidin-1-ylsulfonylbenzoate], the IC50 is less than 100 nM. Take `CCn1nc(CCCOC(=O)C2CCS(=O)(=O)CC2)c2c1C(=O)NCC1(CCOCC1)C2` [Example 262, 3-(1-ethyl-8-oxo-spiro[6,7-dihydro-4H-pyrazolo[3,4-c]azepine-5,4′-tetrahydro-pyran]-3-yl)propyl 1,1-dioxothiane-4-carboxylate]: the IC50 was less than 100 nM. In the case of `CCn1nc(CCCCOC(=O)C(C)C)c2c1C(=O)NCC1(CCOCC1)C2` [Example 121, 4-(1-ethyl-8-oxo-spiro[6,7-dihydro-4H-pyrazolo[3,4-c]azepine-5,4′-tetrahydropyran]-3-yl)butyl 2-methyl-propanoate], the IC50 is less than 100 nM.

With `CCn1nc(C[C@@H](C)COC(=O)c2cccc(S(=O)(=O)CC)c2)c2c1C(=O)NCC1(CCOCC1)C2` [Example 156, [(2R)-3-(1-ethyl-8-oxo-spiro[6,7-dihydro-4H-pyrazolo[3,4-c]azepine-5,4′-tetrahydropyran]-3-yl)-2-methyl-propyl] 3-ethylsulfonylbenzoate], the IC50 is less than 100 nM.

On to `CCn1nc(CCCOC(=O)c2ccc(C(=O)N3CCCCC3)cc2)c2c1C(=O)NCC1(CCOCC1)C2` [Example 108, 3-(1-ethyl-8-oxo-spiro[6,7-dihydro-4H-pyrazolo[3,4-c]azepine-5,4′-tetrahydro-pyran]-3-yl)propyl 4-(piperidine-1-carbonyl)benzoate], for which the IC50 was less than 100 nM. Regarding `CCn1nc(CCCOC(=O)c2ccc(C(F)(F)F)c(C(F)(F)F)c2)c2c1C(=O)NCC1(CCOCC1)C2` [Example 98, 3-(1-ethyl-8-oxo-spiro[6,7-dihydro-4H-pyrazolo[3,4-c]azepine-5,4′-tetrahydropyran]-3-yl)propyl 3,4-bis(trifluoromethyl)benzoate], the 50% inhibitory concentration (IC50) is less than 100 nM.

For `CCn1nc(CCCOC(=O)c2ccccc2S(C)(=O)=O)c2c1C(=O)NCC1(CCOCC1)C2` [Example 64, 3-(1-ethyl-8-oxo-spiro[6,7-dihydro-4H-pyrazolo[3,4-c]azepine-5,4′-tetrahydropyran]-3-yl)propyl 2-methylsulfonylbenzoate], the IC50 was less than 100 nM.

`CCn1nc(CCCOC(=O)c2ccc(Cl)c(F)c2)c2c1C(=O)NCC1(CCOCC1)C2` [Example 48, 3-(1-ethyl-8-oxo-spiro[6,7-dihydro-4H-pyrazolo[3,4-c]azepine-5,4′-tetrahydropyran]-3-yl)propyl 4-chloro-3-fluoro-benzoate]: the IC50 is less than 100 nM.

Consider `CCn1nc(CCCOC(=O)c2c(F)cccc2OC)c2c1C(=O)NCC1(CCOCC1)C2` [Example 41, 3-(1-ethyl-8-oxo-spiro[6,7-dihydro-4H-pyrazolo[3,4-c]azepine-5,4′-tetrahydropyran]-3-yl)propyl 2-fluoro-6-methoxy-benzoate], for which the half-maximal inhibitory concentration (IC50) was less than 100 nM. Take `CCn1nc(CCCOC(=O)c2c(F)cccc2F)c2c1C(=O)NCC1(CCOCC1)C2` [Example 26, 3-(1-ethyl-8-oxo-spiro[6,7-dihydro-4H-pyrazolo[3,4-c]azepine-5,4′-tetrahydropyran]-3-yl)propyl 2,6-difluorobenzoate]: the IC50 is less than 100 nM.

`CCn1nc(C[C@@H](C)COC(=O)[C@H]2CC[C@H](O)CC2)c2c1C(=O)NCC1(CCOCC1)C2` [Example 146, [(2R)-3-(1-ethyl-8-oxo-spiro[6,7-dihydro-4H-pyrazolo[3,4-c]azepine-5,4′-tetrahydropyran]-3-yl)-2-methyl-propyl] 4-hydroxy-cyclohexanecarboxylate]: the IC50 was less than 100 nM. For the compound `CCn1nc(CCCCOC(=O)c2ccc(F)cc2)c2c1C(=O)NCC1(CCOCC1)C2` [Example 124, 4-(1-ethyl-8-oxo-spiro[6,7-dihydro-4H-pyrazolo[3,4-c]azepine-5,4′-tetrahydropyran]-3-yl)butyl 4-fluorobenzoate], the IC50 is less than 100 nM.

With `CCn1nc(CCCOC(=O)c2ccc(Cl)c(OC)c2)c2c1C(=O)NCC1(CCOCC1)C2` [Example 55, 3-(1-ethyl-8-oxo-spiro[6,7-dihydro-4H-pyrazolo[3,4-c]azepine-5,4′-tetrahydropyran]-3-yl)propyl 4-chloro-3-methoxy-benzoate], the IC50 is less than 100 nM. For `CCn1nc(CCCOC(=O)c2cnc(C)s2)c2c1C(=O)NCC1(CCOCC1)C2` [Example 255, 3-(1-ethyl-8-oxo-spiro[6,7-dihydro-4H-pyrazolo[3,4-c]azepine-5,4′-tetrahydropyran]-3-yl)propyl 2-methylthiazole-5-carboxylate], the IC50 is less than 100 nM. For `CCn1nc(CCCOC(=O)c2ccc(S(=O)(=O)N3CCOCC3)cc2)c2c1C(=O)NCC1(CCOCC1)C2` [Example 100, 3-(1-ethyl-8-oxo-spiro[6,7-dihydro-4H-pyrazolo[3,4-c]azepine-5,4′-tetrahydropyran]-3-yl)propyl 4-morpholinosulfonylbenzoate], the IC50 was less than 100 nM. Consider `CCn1nc(CCCOC(=O)c2cccc(C(F)(F)F)c2Cl)c2c1C(=O)NCC1(CCOCC1)C2` [Example 85, 3-(1-ethyl-8-oxo-spiro[6,7-dihydro-4H-pyrazolo[3,4-c]azepine-5,4′-tetrahydropyran]-3-yl)propyl 2-chloro-3-(trifluoromethyl)benzoate], for which the IC50 was less than 100 nM. As for `CCn1nc(CCCOC(=O)c2cccc(S(=O)(=O)CC)c2)c2c1C(=O)NCC1(CCOCC1)C2` [Example 76, 3-(1-ethyl-8-oxo-spiro[6,7-dihydro-4H-pyrazolo[3,4-c]azepine-5,4′-tetrahydro-pyran]-3-yl)propyl 3-ethylsulfonylbenzoate], the IC50 was less than 100 nM.
